Measured values reported in ChEMBL document CHEMBL3994564 (Medchemcomm, 2016).
Converted amounts (≈) assume the structure as drawn.

How the values were obtained:
[1] = tested on: Escherichia coli; assay: Antibacterial activity against Escherichia coli ATCC 25922 after 24 hrs by MTT assay; type: functional; conditions: ATCC 25922, 24 h
[2] = molecular target: T1, Beta-ketoacyl-[acyl-carrier-protein] synthase III (Escherichia coli K-12, UniProt P0A6R0); assay: Inhibition of Escherichia coli FabH expressed in Escherichia coli DH10B using holo-ACP/acetyl-CoA as substrate assessed as incorporation of [3H] signal in final product preincubated with holo-ACP for 1 hr followed by acetyl-CoA addition measured after 25 mins by liquid scintillation counting method
T1 sequence (P0A6R0 whole entry): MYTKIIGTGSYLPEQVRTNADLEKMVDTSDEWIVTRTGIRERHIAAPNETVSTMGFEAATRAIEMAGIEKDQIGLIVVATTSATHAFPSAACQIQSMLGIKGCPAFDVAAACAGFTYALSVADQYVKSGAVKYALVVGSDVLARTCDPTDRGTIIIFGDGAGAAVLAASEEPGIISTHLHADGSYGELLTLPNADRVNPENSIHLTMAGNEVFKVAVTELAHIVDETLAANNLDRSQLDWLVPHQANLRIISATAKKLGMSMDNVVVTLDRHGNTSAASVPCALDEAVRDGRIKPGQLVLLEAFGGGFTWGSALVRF

[3] = tested on: Pseudomonas aeruginosa; assay: Antibacterial activity against Pseudomonas aeruginosa ATCC 27853 after 24 hrs by MTT assay; type: functional; conditions: ATCC 27853, 24 h
[4] = tested on: Bacillus subtilis; assay: Antibacterial activity against Bacillus subtilis ATCC 530 after 24 hrs by MTT assay; type: functional; conditions: ATCC 530, 24 h
[5] = tested on: Staphylococcus aureus; assay: Antibacterial activity against Staphylococcus aureus ATCC 6538 after 24 hrs by MTT assay; type: functional; conditions: ATCC 6538, 24 h
[6] = tested on: NIH3T3; assay: Cytotoxic activity against mouse NIH/3T3 cells after 24 hrs by MTT assay; type: cell-based; conditions: NIH3T3, 24 h

SMILES	MIC [1] [µg/mL]	IC50 [2] [µM]	MIC [3] [µg/mL]	MIC [4] [µg/mL]	MIC [5] [µg/mL]	IC50 [6] [µM]
O=C(N/N=C/c1ccc(O)c([N+](=O)[O-])c1)c1ccc2c(c1)OCCCO2	6.25 (≈ 17.5 µM)	8.9	12.5 (≈ 35 µM)	12.5 (≈ 35 µM)	25 (≈ 70 µM)	198
O=C(N/N=C/c1cc([N+](=O)[O-])ccc1Cl)c1ccc2c(c1)OCCCO2	3.13 (≈ 8.33 µM)	3.9	3.13 (≈ 8.33 µM)	6.25 (≈ 16.6 µM)	3.13 (≈ 8.33 µM)	172
COc1ccc(/C=N/NC(=O)c2ccc3c(c2)OCCCO3)cc1	25 (≈ 76.6 µM)	24.1	12.5 (≈ 38.3 µM)	50 (≈ 153 µM)	25 (≈ 76.6 µM)	132
O=C(N/N=C/c1cc([N+](=O)[O-])ccc1O)c1ccc2c(c1)OCCCO2	6.25 (≈ 17.5 µM)	3.5	3.13 (≈ 8.76 µM)	3.13 (≈ 8.76 µM)	6.25 (≈ 17.5 µM)	157
O=C(N/N=C/c1ccccc1Cl)c1ccc2c(c1)OCCCO2	25 (≈ 75.6 µM)	–	50 (≈ 151 µM)	> 100	50 (≈ 151 µM)	–
O=C(N/N=C/c1ccc(I)cc1)c1ccc2c(c1)OCCCO2	25 (≈ 59.2 µM)	6.9	25 (≈ 59.2 µM)	12.5 (≈ 29.6 µM)	6.25 (≈ 14.8 µM)	201
O=C(N/N=C/c1ccc(F)c([N+](=O)[O-])c1)c1ccc2c(c1)OCCCO2	12.5 (≈ 34.8 µM)	5.1	6.25 (≈ 17.4 µM)	6.25 (≈ 17.4 µM)	6.25 (≈ 17.4 µM)	131
O=Cc1ccccc1/C=N/NC(=O)c1ccc2c(c1)OCCCO2	25 (≈ 77.1 µM)	–	25 (≈ 77.1 µM)	50 (≈ 154 µM)	25 (≈ 77.1 µM)	–
CN(C)c1ccc(/C=N/NC(=O)c2ccc3c(c2)OCCCO3)c(O)c1	12.5 (≈ 35.2 µM)	6.7	12.5 (≈ 35.2 µM)	50 (≈ 141 µM)	25 (≈ 70.3 µM)	203
COc1cc(/C=N/NC(=O)c2ccc3c(c2)OCCCO3)cc(OC)c1O	3.13 (≈ 8.41 µM)	3.9	6.25 (≈ 16.8 µM)	3.13 (≈ 8.41 µM)	6.25 (≈ 16.8 µM)	147
O=C(N/N=C/c1cccs1)c1ccc2c(c1)OCCCO2	> 100	–	> 100	> 100	> 100	–
O=C(N/N=C/c1ccc(Cl)cc1Cl)c1ccc2c(c1)OCCCO2	6.25 (≈ 17.1 µM)	4.3	6.25 (≈ 17.1 µM)	12.5 (≈ 34.2 µM)	6.25 (≈ 17.1 µM)	198
O=C(N/N=C/c1cccc2ccccc12)c1ccc2c(c1)OCCCO2	3.13 (≈ 9.04 µM)	5.2	6.25 (≈ 18 µM)	6.25 (≈ 18 µM)	6.25 (≈ 18 µM)	130
Cc1ccccc1/C=N/NC(=O)c1ccc2c(c1)OCCCO2	> 100	–	50 (≈ 161 µM)	> 100	> 100	–
O=C(N/N=C/c1ccc(O)cc1)c1ccc2c(c1)OCCCO2	50 (≈ 160 µM)	38.7	25 (≈ 80 µM)	25 (≈ 80 µM)	12.5 (≈ 40 µM)	178
Cc1cccc(/C=N/NC(=O)c2ccc3c(c2)OCCCO3)c1	50 (≈ 161 µM)	–	25 (≈ 80.6 µM)	50 (≈ 161 µM)	> 100	–
O=C(N/N=C/C=C/c1ccccc1)c1ccc2c(c1)OCCCO2	50 (≈ 155 µM)	–	25 (≈ 77.6 µM)	50 (≈ 155 µM)	> 100	–
O=C(N/N=C/c1ccc(O)c(O)c1)c1ccc2c(c1)OCCCO2	12.5 (≈ 38.1 µM)	7.8	12.5 (≈ 38.1 µM)	25 (≈ 76.1 µM)	25 (≈ 76.1 µM)	102

SMILES	MIC [1] [µg/mL]	IC50 [2] [µM]	MIC [3] [µg/mL]	MIC [4] [µg/mL]	MIC [5] [µg/mL]	IC50 [6] [µM]
O=C(N/N=C/c1cc([N+](=O)[O-])ccc1F)c1ccc2c(c1)OCCCO2	6.25 (≈ 17.4 µM)	9.5	12.5 (≈ 34.8 µM)	12.5 (≈ 34.8 µM)	12.5 (≈ 34.8 µM)	168
COc1ccc(/C=N/NC(=O)c2ccc3c(c2)OCCCO3)cc1OC	3.13 (≈ 8.78 µM)	4.1	3.13 (≈ 8.78 µM)	3.13 (≈ 8.78 µM)	6.25 (≈ 17.5 µM)	126
O=C(N/N=C/c1ccccc1)c1ccc2c(c1)OCCCO2	50 (≈ 169 µM)	–	50 (≈ 169 µM)	> 100	> 100	–
O=C(N/N=C/c1cc(Cl)ccc1O)c1ccc2c(c1)OCCCO2	12.5 (≈ 36 µM)	13.2	25 (≈ 72.1 µM)	25 (≈ 72.1 µM)	50 (≈ 144 µM)	111
O=C(N/N=C/c1cc(Cl)cc(Cl)c1O)c1ccc2c(c1)OCCCO2	12.5 (≈ 32.8 µM)	5.4	6.25 (≈ 16.4 µM)	6.25 (≈ 16.4 µM)	12.5 (≈ 32.8 µM)	184
O=C(N/N=C/c1ccccc1Br)c1ccc2c(c1)OCCCO2	50 (≈ 133 µM)	–	25 (≈ 66.6 µM)	25 (≈ 66.6 µM)	50 (≈ 133 µM)	–
O=C(N/N=C/c1ccc(F)cc1)c1ccc2c(c1)OCCCO2	12.5 (≈ 39.8 µM)	32.5	25 (≈ 79.5 µM)	50 (≈ 159 µM)	25 (≈ 79.5 µM)	126
Cc1ccc(/C=N/NC(=O)c2ccc3c(c2)OCCCO3)cc1	50 (≈ 161 µM)	–	50 (≈ 161 µM)	50 (≈ 161 µM)	> 100	–
O=C(N/N=C/c1ccc(Cl)c([N+](=O)[O-])c1)c1ccc2c(c1)OCCCO2	3.13 (≈ 8.33 µM)	4.4	6.25 (≈ 16.6 µM)	3.13 (≈ 8.33 µM)	6.25 (≈ 16.6 µM)	147
C(=N\C1CCCCC1)/c1ccc2c(c1)OCCCO2	–	1.6	–	–	–	–
COc1cc(/C=N/NC(=O)c2ccc3c(c2)OCCCO3)cc(OC)c1OC	1.56 (≈ 4.04 µM)	2	3.13 (≈ 8.1 µM)	1.56 (≈ 4.04 µM)	3.13 (≈ 8.1 µM)	120
Cc1ccc(/C=N/NC(=O)c2ccc3c(c2)OCCCO3)o1	> 100	–	> 100	> 100	> 100	–
O=C(N/N=C/c1c(F)cccc1Cl)c1ccc2c(c1)OCCCO2	12.5 (≈ 35.8 µM)	20.6	25 (≈ 71.7 µM)	50 (≈ 143 µM)	25 (≈ 71.7 µM)	164
O=C(N/N=C/c1ccc2ccccc2c1)c1ccc2c(c1)OCCCO2	6.25 (≈ 18 µM)	4.6	3.13 (≈ 9.04 µM)	3.13 (≈ 9.04 µM)	6.25 (≈ 18 µM)	114
O=C(N/N=C/c1ccccc1O)c1ccc2c(c1)OCCCO2	50 (≈ 160 µM)	–	50 (≈ 160 µM)	12.5 (≈ 40 µM)	25 (≈ 80 µM)	–
O=C(N/N=C/c1ccc(-c2ccccc2)cc1)c1ccc2c(c1)OCCCO2	3.13 (≈ 8.4 µM)	4.7	6.25 (≈ 16.8 µM)	6.25 (≈ 16.8 µM)	12.5 (≈ 33.6 µM)	146
NC[C@H]1O[C@H](O[C@H]2[C@H](O)[C@@H](O[C@H]3O[C@H](CO)[C@@H](O)[C@H](N)[C@H]3O)[C@H](N)C[C@@H]2N)[C@H](N)[C@@H](O)[C@@H]1O [BEKANAMYCIN]	3.13 (≈ 6.47 µM)	5.6	3.13 (≈ 6.47 µM)	1.56 (≈ 3.23 µM)	1.56 (≈ 3.23 µM)	–
